Patent publication US6432879B1, “Substituted phenyl uracils” (Bayer Aktiengesellschaft, priority 1997, dated 2002)

Assays:
weeds [1] = experiment: Post-emergence test, activity against weeds; type: in vivo; conditions: test plants of 5-15 cm sprayed, rated after three weeks vs untreated control
Procedure: (§1) Solvent: 5 parts by weight of acetone
(§2) Emulsifier: 1 part by weight of alkylaryl polyglycol ether
To produce a suitable preparation of active compound, 1 part by weight of active compound is mixed with the stated amount of solvent, the stated amount of emulsifier is added and the concentrate is diluted with water to the desired concentration.
Test plants of a height of 5-15 cm are sprayed with the preparation of active compound such that the particular amounts of active compound desired are applied per unit area. The concentration of the spray liquor is chosen so that the particular amounts of active compound desired are applied in 1000 l of water/ha.
(§3) After three weeks, the degree of damage to the plants is rated in % damage in comparison to the development of the untreated control.
(§4) 0%=no effect (like untreated control)

weeds [2] = experiment: Pre-emergence test, action against weeds; type: in vivo; conditions: soil sprayed about 24 hours after sowing, rated after three weeks vs untreated control
Procedure: as §1, §2
To produce a suitable preparation of active compounds, 1 part by weight of active compound is mixed with the stated amount of solvent, the stated amount of emulsifier is added and the concentrate is diluted with water to the desired concentration.
Seeds of the test plants are sown in normal soil. After about 24 hours, the soil is sprayed with the preparation of active compounds such that the particular amounts of active compound desired are applied per unit area. The concentration of the spray liquor is chosen so that the particular amounts of active compound desired are applied in 1000 l of water/ha.
as §3, §4

Structure (SMILES): CC(=O)Nc1cc(OCc2ccc(Cl)cc2)ccc1-n1c(=O)cc(C(F)(F)F)n(C)c1=O [Example 7, 1-[2-acetylamino-4-(4-chloro-phenylmethoxy)-phenyl]-3-methyl-4-trifluoromethyl-3,6-dihydro-2,6-dioxo-1(2H)-pyrimidine]
- melting point: 230 °C
- activity against weeds (degree of damage to the plants) (weeds [1]): strong activity
- action against weeds (degree of damage to the plants) (weeds [2]): strong action

Structure (SMILES): Nn1c(C(F)(F)F)cc(=O)n(-c2ccc(OCc3ccc(Cl)nc3)cc2[N+](=O)[O-])c1=O [Example 4, 3-amino-1-[4-(2-chloro-pyridin-5-yl-methoxy)-2-nitro-phenyl]-4-trifluoromethyl-3,6-dihydro-2,6-dioxo-1(2H)-pyrimidine]
- melting point: 193 °C

Structure (SMILES): Cn1c(C(F)(F)F)cc(=O)n(-c2ccc(OCc3ccc(Cl)cc3)cc2[N+](=O)[O-])c1=O [Example 3, 1-[4-(4-chloro-phenylmethoxy)-2-nitrophenyl]-3-methyl-4-trifluoromethyl-3,6-dihydro-2,6-dioxo-1(2H)-pyrimidine]
- melting point: 159 °C
- action against weeds (degree of damage to the plants) (weeds [2]): strong action

Structure (SMILES): O=c1cc(C(F)(F)F)[nH]c(=O)n1-c1ccc(OCc2ccc(Cl)nc2)cc1[N+](=O)[O-] [Example 2, 1-[4-(2-chloro-pyridin-5-yl-methoxy)-2-nitrophenyl]-4-trifluoromethyl-3,6-dihydro-2,6-dioxo-1(2H)-pyrimidine]
- melting point: 209 °C

Structure (SMILES): Cn1c(C(F)(F)F)cc(=O)n(-c2ccc(OCc3ccc(Cl)cc3)cc2N)c1=O [Example 5, 1-[2-amino-4-(4-chloro-phenylmethoxy)-phenyl]-3-methyl-4-trifluoromethyl-3,6-dihydro-2,6-dioxo-1(2H)-pyrimidine]
- melting point: 166 °C
- activity against weeds (degree of damage to the plants) (weeds [1]): strong activity
- action against weeds (degree of damage to the plants) (weeds [2]): strong action

Structure (SMILES): O=c1cc(C(F)(F)F)[nH]c(=O)n1-c1ccc(OCc2ccc(Cl)cc2)cc1[N+](=O)[O-] [Example 1, 1-[4-(4-chloro-phenylmethoxy)-2nitrophenyl]-4-trifluoromethyl-3,6-dihydro-2,6-dioxo-1(2H)-pyrimidin]
- melting point: 237 °C
